{"source": "patent US20230391760A1", "about": "“HETEROCYCLIC GLP-1 AGONISTS” (Gasherbrum Bio, Inc., priority 2020, published 2023)"}
{"target": "GLP-1 Receptor (Homo sapiens, UniProt P43220)", "sequence (P43220 24-463, species assumed)": "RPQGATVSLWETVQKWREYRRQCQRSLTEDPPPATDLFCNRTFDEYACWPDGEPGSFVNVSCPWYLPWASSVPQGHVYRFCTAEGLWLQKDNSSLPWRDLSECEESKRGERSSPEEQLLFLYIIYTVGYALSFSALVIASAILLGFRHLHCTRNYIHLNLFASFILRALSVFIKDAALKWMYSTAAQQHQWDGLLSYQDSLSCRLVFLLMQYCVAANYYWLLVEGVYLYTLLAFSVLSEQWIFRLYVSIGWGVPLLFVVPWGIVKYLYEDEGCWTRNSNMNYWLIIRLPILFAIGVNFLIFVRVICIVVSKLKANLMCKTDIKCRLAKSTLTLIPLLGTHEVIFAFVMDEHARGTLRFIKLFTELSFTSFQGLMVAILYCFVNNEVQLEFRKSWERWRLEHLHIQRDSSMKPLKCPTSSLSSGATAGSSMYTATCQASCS", "assay": "GLP-1R agonist cAMP stimulation assay (HEK293/GLP1R/CRE-LUC cells, cAMP dynamic 2 Kit)", "assay_type": "cell-based", "conditions": "HEK293/CRE-Luc cell line stably expressing the GLP-1 Receptor, 30 min at 37° C.", "method_in_brief": "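HEK293 cells stably expressing human GLP-1R with CRE-luciferase, 1000 cells/well in DPBS with 0.5 mM IBMX and 0.1% BSA, treated with compound in 1/2-log serial dilution for 30 min at 37 °C. cAMP then detected by HTRF (cAMP-d2 plus anti-cAMP cryptate), 1 h at room temperature in the dark.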", "units": {"EC50": "nM"}}
{"smiles": "COC1(C(=O)Nc2ccc3c(c2)nc(CN2CCC(c4cccc(OCc5ccc(Cl)cc5F)n4)CC2)n3C[C@@H]2CCO2)CCCOC1", "note": "(stereo partly drawn) [Compound 196a, N-{2-[(4-{6-[(4-chloro-2-fluorophenyl)methoxy]pyridin-2-yl}piperidin-1-yl)methyl]-1-{[(2S)-oxetan-2-yl]methyl}-1H-1,3-benzodiazol-5-yl}-3-methoxyoxane-3-carboxamide]", "EC50": 1.1}
{"smiles": "CC(=O)Nc1cnc2c(c1)nc(CN1CCC(c3cccc(OCc4ccc(Cl)cc4F)n3)CC1)n2C[C@@H]1CCO1", "note": "[Compound 131a, N-{2-[(4-{6-[(4-chloro-2-fluorophenyl)methoxy]pyridin-2-yl}piperidin-1-yl)methyl]-3-{[(2S)-oxetan-2-yl]methyl}-3H-imidazo[4,5-b]pyridin-6-yl}acetamide]", "EC50": 6.3}
{"smiles": "CC1(c2ccc(C#N)cc2F)Oc2cccc(C3CCN(Cc4nc5cc(-c6nnc(C(F)(F)F)[nH]6)nnc5n4C[C@@H]4CCO4)CC3)c2O1", "note": "(stereo partly drawn) [Compound 273a, 3-fluoro-4-(2-methyl-4-{1-[(7-{[(2S)-oxetan-2-yl]methyl}-3-[5-(trifluoromethyl)-4H-1,2,4-triazol-3-yl]-7H-imidazo[4,5-c]pyridazin-6-yl)methyl]piperidin-4-yl}-2H-1,3-benzodioxol-2-yl)benzonitrile]", "EC50": 0.019}
{"smiles": "CC1(c2ccc(C#N)cc2)Oc2cccc(C3CCN(Cc4nc5cc(-c6nnc(C(F)(F)F)[nH]6)ccc5n4C[C@@H]4CCO4)CC3)c2O1", "note": "(stereo partly drawn) [Compound 260a, 4-(2-methyl-4-{1-[(1-{[(2S)-oxetan-2-yl]methyl}-5-[5-(trifluoromethyl)-4H-1,2,4-triazol-3-yl]-1H-1,3-benzodiazol-2-yl)methyl]piperidin-4-yl}-2H-1,3-benzodioxol-2-yl)benzonitrile]", "EC50": 0.031}
{"smiles": "O=C(Nc1ccc2c(c1)nc(CN1CCC(c3cccc(OCc4ccc(Cl)cc4F)n3)CC1)n2C[C@@H]1CCO1)c1ccc(C2CC2)nc1", "note": "[Compound 176a, N-{2-[(4-{6-[(4-chloro-2-fluorophenyl)methoxy]pyridin-2-yl}piperidin-1-yl)methyl]-1-{[(2S)-oxetan-2-yl]methyl}-1H-1,3-benzodiazol-5-yl}-6-cyclopropylpyridine-3-carboxamide]", "EC50": 8.6}
{"smiles": "CC1(c2ccc(Cl)cc2F)Oc2cccc(C3CCN(Cc4nc5cc(-c6nnn[nH]6)c(F)cc5n4C[C@@H]4CCO4)CC3)c2O1", "note": "(stereo partly drawn) [Compound 223a, 2-({4-[2-(4-chloro-2-fluorophenyl)-2-methyl-2H-1,3-benzodioxol-4-yl]piperidin-1-yl}methyl)-6-fluoro-1-{[(2S)-oxetan-2-yl]methyl}-5-(1H-1,2,3,4-tetrazol-5-yl)-1H-1,3-benzodiazole]", "EC50": 0.12}
{"smiles": "O=C1NCCN1c1ccc2c(c1)nc(CN1CCC(c3cccc(OCc4ccc(Cl)cc4F)n3)CC1)n2C[C@@H]1CCO1", "note": "[Compound 123a, 1-{2-[(4-{6-[(4-chloro-2-fluorophenyl)methoxy]pyridin-2-yl}piperidin-1-yl)methyl]-1-{[(2S)-oxetan-2-yl]methyl}-1H-1,3-benzodiazol-5-yl}imidazolidin-2-one]", "EC50": 4}
{"smiles": "Fc1cc(Cl)ccc1COc1nc(C2CCN(Cc3nc4cc(-c5nnc(C(F)(F)F)[nH]5)nnc4n3C[C@@H]3CCO3)CC2)ncc1F", "note": "[Compound 510a, 4-[(4-chloro-2-fluorophenyl)methoxy]-5-fluoro-2-{1-[(7-{[(2S)-oxetan-2-yl]methyl}-3-[5-(trifluoromethyl)-4H-1,2,4-triazol-3-yl]-7H-imidazo[4,5-c]pyridazin-6-yl)methyl]piperidin-4-yl}pyrimidine]", "EC50": 0.16}
{"smiles": "CC1(c2ccc(Cl)cn2)Oc2cccc(C3CCN(Cc4nc5cc(-c6n[nH]c(C(F)(F)F)n6)cnc5n4C[C@@H]4CCO4)CC3)c2O1", "note": "(mixture of isomers) [Compound 333a, 5-chloro-2-(2-methyl-4-{1-[(3-{[(2S)-oxetan-2-yl]methyl}-6-[5-(trifluoromethyl)-4H-1,2,4-triazol-3-yl]-3H-imidazo[4,5-b]pyridin-2-yl)methyl]piperidin-4-yl}-2H-1,3-benzodioxol-2-yl)pyridine]", "EC50": 0.03}
{"smiles": "C[C@]1(c2ccc(Cl)cn2)Oc2cccc(C3CCN(Cc4nc5cc(-c6n[nH]c(C(F)(F)F)n6)cnc5n4C[C@@H]4CCO4)CC3)c2O1", "note": "(single isomer, unassigned) [Compound 333b]", "EC50": 0.029}
{"smiles": "CC1(c2ccc(Cl)cc2F)Oc2cccc(C3CCN(Cc4nc5cc(-c6nnc(C(F)(F)F)[nH]6)ccc5n4C[C@@H]4CCO4)CC3)c2O1", "note": "(single isomer, unassigned) [Compound 229b]", "EC50": 8.9}
{"smiles": "Fc1cc(Cl)ccc1C1COc2cccc(C3CCN(Cc4nc5cc(-c6nnc(C(F)(F)F)[nH]6)ncc5n4C[C@@H]4CCO4)CC3)c2O1", "note": "(stereo partly drawn) [Compound 457a, 4-[3-(4-chloro-2-fluorophenyl)-2,3-dihydro-1,4-benzodioxin-5-yl]-1-[(3-{[(2S)-oxetan-2-yl]methyl}-6-[5-(trifluoromethyl)-4H-1,2,4-triazol-3-yl]-3H-imidazo[4,5-c]pyridin-2-yl)methyl]piperidine]", "EC50": 0.12}
{"smiles": "CC1(c2ccc(Cl)cc2F)Oc2cccc(C3CCN(Cc4nc5cc(-c6cn[nH]c6)ccc5n4C[C@@H]4CCO4)CC3)c2O1", "note": "(stereo partly drawn) [Compound 234a, 2-((4-(2-(4-chloro-2-fluorophenyl)-2-methylbenzo[d][1,3]dioxol-4-yl)piperidin-1-yl)methyl)-1-(((S)-oxetan-2-yl)methyl)-5-(1H-pyrazol-4-yl)-1H-benzo[d]imidazole]", "EC50": 3.7}
{"smiles": "Cc1nnc(-c2ccc3c(c2)nc(CN2CCC(c4cccc5c4O[C@@](C)(c4ccc(Cl)cc4F)O5)CC2)n3C[C@@H]2CCO2)[nH]1", "note": "[Compound 406a, 2-({4-[(2S)-2-(4-chloro-2-fluorophenyl)-2-methyl-2H-1,3-benzodioxol-4-yl]piperidin-1-yl}methyl)-5-(5-methyl-4H-1,2,4-triazol-3-yl)-1-{[(2S)-oxetan-2-yl]methyl}-1H-1,3-benzodiazole]", "EC50": 0.018}
{"smiles": "C[C@]1(c2ccc(Cl)cn2)Oc2cccc(C3CCN(Cc4nc5cc(-c6nnc(C#N)[nH]6)ncc5n4C[C@@H]4CCO4)CC3)c2O1", "note": "[Compound 481a, 5-[2-({4-[(2S)-2-(5-chloropyridin-2-yl)-2-methyl-2H-1,3-benzodioxol-4-yl]piperidin-1-yl}methyl)-3-{[(2S)-oxetan-2-yl]methyl}-3H-imidazo[4,5-c]pyridin-6-yl]-4H-1,2,4-triazole-3-carbonitrile]", "EC50": 0.0048}
{"smiles": "CC1(c2ccc(Cl)cc2F)Oc2cccc(C3CCN(Cc4nc5cc(-c6n[nH]c(=O)s6)ccc5n4C[C@@H]4CCO4)CC3)c2O1", "note": "(stereo partly drawn) [Compound 221a, 5-[2-({4-[2-(4-chloro-2-fluorophenyl)-2-methyl-2H-1,3-benzodioxol-4-yl]piperidin-1-yl}methyl)-1-{[(2S)-oxetan-2-yl]methyl}-1H-1,3-benzodiazol-5-yl]-2,3-dihydro-1,3,4-thiadiazol-2-one]", "EC50": 7.4}
{"smiles": "Fc1cc(Cl)ccc1COc1ccc(F)c(N2CCN(Cc3nc4cc(-c5nnc(C(F)(F)F)[nH]5)cnc4n3C[C@@H]3CCO3)CC2)n1", "note": "[Compound 513a, 1-{6-[(4-chloro-2-fluorophenyl)methoxy]-3-fluoropyridin-2-yl}-4-[(3-{[(2S)-oxetan-2-yl]methyl}-6-[5-(trifluoromethyl)-4H-1,2,4-triazol-3-yl]-3H-imidazo[4,5-b]pyridin-2-yl)methyl]piperazine]", "EC50": 0.064}
